Test results from ChEMBL document CHEMBL5465560, “Selectivity Literature for EUbOPEN Chemogenomic Library” (2024).
Blank lines part the entries; values can stand above or below the molecule they belong to.

Legend:
[1] = biological target: Prostaglandin E2 receptor EP2 subtype (Homo sapiens) (UniProt P43116); experiment: Selectivity interaction (Eurofins CEREP Diversity Profile (receptors and ion channels)) EUB0000279b PTGER2; details: at 10 µM
[2] = biological target: [Pyruvate dehydrogenase (acetyl-transferring)] kinase isozyme 1, mitochondrial (Homo sapiens, UniProt Q15118); experiment: Selectivity interaction (Millipore kinase profiler) EUB0000124b PDK1; details: at 10 µM
[3] = biological target: T1, Interleukin-1 receptor-associated kinase 4 (Homo sapiens) (UniProt Q9NWZ3); experiment: Selectivity interaction (Kinase panel (Invitrogen)) EUB0000639a IRAK4; details: at 200 nM
T1 sequence (whole entry): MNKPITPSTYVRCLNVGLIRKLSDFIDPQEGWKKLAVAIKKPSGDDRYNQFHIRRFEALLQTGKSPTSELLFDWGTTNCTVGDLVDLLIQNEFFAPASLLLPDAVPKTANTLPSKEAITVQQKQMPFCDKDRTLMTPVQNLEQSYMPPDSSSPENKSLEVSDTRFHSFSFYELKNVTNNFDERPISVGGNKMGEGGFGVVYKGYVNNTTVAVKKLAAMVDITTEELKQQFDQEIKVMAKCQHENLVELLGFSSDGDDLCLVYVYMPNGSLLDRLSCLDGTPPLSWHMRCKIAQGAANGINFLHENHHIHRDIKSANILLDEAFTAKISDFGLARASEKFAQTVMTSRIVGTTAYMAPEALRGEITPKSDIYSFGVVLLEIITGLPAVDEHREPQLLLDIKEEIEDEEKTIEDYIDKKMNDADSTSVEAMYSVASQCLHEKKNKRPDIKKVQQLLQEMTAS

[4] = biological target: T2, Discoidin domain-containing receptor 2 (Homo sapiens) (UniProt Q16832); experiment: Selectivity interaction (KinomeScan (DiscoverX)) EUB0001049a DDR2; details: at 1 µM
T2 sequence (whole entry): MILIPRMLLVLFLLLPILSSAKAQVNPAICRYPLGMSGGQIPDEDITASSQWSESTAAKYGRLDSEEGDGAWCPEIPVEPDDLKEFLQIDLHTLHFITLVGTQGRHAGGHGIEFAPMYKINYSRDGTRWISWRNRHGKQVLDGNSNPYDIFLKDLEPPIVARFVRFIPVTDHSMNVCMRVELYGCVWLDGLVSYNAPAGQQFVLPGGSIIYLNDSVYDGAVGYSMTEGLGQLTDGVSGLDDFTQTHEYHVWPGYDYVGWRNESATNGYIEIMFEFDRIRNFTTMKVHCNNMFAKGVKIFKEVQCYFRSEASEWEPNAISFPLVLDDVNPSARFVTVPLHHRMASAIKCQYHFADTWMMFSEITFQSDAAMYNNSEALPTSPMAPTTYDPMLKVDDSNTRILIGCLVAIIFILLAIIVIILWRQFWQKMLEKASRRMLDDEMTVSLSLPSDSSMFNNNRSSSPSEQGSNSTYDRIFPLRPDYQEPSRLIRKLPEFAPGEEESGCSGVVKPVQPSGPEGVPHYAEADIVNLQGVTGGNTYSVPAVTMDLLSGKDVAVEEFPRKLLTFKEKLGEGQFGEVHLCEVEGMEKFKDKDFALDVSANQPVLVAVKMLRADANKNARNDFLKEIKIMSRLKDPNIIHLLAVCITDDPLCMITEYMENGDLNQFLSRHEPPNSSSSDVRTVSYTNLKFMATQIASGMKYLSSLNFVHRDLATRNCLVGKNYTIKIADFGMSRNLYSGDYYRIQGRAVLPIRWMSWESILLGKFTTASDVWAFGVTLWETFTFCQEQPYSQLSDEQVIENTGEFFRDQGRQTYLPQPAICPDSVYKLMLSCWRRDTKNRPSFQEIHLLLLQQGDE

[5] = biological target: Tyrosine-protein kinase Fyn (Homo sapiens) (UniProt P06241); experiment: Selectivity interaction (KinomeScan (DiscoverX)) EUB0001049a FYN; details: at 1 µM
[6] = biological target: T3, Ankyrin repeat and protein kinase domain-containing protein 1 (Homo sapiens) (UniProt Q8NFD2); experiment: Selectivity interaction (KinomeScan (DiscoverX)) EUB0000666a ANKK1; details: at 10 µM
T3 sequence (whole entry): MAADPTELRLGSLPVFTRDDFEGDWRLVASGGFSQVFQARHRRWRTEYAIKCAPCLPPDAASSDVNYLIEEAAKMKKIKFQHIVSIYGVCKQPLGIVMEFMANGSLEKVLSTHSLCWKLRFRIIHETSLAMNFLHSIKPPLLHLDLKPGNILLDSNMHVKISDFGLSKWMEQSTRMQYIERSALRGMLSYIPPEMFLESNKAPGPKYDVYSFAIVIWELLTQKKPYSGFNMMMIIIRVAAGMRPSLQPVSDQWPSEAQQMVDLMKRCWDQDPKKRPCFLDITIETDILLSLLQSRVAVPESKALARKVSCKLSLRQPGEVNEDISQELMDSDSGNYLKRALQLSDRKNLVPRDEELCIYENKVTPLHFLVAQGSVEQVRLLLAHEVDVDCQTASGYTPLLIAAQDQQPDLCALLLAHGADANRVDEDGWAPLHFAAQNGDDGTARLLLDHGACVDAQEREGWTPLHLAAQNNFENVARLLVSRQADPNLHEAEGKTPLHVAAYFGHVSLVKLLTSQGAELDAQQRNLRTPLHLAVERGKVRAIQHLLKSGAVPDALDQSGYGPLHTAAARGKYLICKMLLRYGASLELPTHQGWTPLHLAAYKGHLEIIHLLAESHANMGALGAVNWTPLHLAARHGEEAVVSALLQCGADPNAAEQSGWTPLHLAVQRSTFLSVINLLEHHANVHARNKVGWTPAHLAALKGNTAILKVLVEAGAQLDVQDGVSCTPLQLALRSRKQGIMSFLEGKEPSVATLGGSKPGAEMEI

[7] = biological target: T4, Mitogen-activated protein kinase kinase kinase 3 (Homo sapiens) (UniProt Q99759); experiment: Selectivity interaction (KinomeScan (DiscoverX)) EUB0000695a MAP3K3; details: at 100 nM
T4 sequence (whole entry): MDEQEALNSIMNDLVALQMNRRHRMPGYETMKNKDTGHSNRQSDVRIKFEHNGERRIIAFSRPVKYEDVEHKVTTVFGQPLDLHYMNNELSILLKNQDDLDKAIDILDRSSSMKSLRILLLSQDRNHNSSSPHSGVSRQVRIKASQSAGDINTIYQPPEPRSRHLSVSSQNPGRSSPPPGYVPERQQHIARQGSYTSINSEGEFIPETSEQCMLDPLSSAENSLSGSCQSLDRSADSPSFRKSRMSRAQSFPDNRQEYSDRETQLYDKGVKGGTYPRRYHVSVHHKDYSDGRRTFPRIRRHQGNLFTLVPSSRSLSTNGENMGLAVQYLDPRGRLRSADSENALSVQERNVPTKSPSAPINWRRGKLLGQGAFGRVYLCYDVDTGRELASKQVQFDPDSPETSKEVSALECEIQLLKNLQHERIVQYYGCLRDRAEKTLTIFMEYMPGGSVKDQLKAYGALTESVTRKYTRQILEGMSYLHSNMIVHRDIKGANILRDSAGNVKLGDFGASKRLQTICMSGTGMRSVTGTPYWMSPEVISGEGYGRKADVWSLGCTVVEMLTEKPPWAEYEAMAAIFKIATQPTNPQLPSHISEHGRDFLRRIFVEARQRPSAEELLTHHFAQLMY

Chain of Tyrosine-protein kinase Fyn (Homo sapiens) (P06241 2-537 limits assumed): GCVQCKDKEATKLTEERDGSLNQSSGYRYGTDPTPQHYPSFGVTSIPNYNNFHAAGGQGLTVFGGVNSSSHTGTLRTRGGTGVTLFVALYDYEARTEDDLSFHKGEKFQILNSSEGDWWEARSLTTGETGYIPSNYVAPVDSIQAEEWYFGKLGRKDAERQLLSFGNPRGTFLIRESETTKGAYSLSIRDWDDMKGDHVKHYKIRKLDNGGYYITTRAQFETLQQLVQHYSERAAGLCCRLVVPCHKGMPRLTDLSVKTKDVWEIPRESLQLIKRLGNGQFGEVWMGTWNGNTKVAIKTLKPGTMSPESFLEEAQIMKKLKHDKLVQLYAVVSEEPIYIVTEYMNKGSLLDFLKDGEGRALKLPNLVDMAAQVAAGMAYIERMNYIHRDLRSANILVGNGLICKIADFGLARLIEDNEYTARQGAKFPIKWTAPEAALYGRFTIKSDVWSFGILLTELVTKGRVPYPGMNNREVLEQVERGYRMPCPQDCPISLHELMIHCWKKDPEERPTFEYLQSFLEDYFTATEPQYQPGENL
Chain of Prostaglandin E2 receptor EP2 subtype (Homo sapiens) (P43116 whole entry): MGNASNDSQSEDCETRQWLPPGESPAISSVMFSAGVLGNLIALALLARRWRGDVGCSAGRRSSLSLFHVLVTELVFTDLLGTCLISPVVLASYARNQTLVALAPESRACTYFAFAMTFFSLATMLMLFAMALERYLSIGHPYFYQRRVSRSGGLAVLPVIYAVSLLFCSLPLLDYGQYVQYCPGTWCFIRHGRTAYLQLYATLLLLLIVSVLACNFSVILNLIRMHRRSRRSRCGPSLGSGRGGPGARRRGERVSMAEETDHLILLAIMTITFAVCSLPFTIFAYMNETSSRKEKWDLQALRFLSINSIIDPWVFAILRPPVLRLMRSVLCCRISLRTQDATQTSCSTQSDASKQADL

- % of control [1]: 95%
Structure (SMILES): CC(=O)c1cc(-c2ccccc2OCC2CC2)c2ncccn12

- % of control [2]: 107%
Structure (SMILES): CC(=O)Nc1cccc(-n2c(=O)n(C3CC3)c(=O)c3c(Nc4ccc(I)cc4F)n(C)c(=O)c(C)c32)c1

- % of inhibition [3]: 106%
Structure (SMILES): CC[C@@H]1[C@H](F)C(=O)N[C@@H]1COc1nccc2cc(C(N)=O)c(OC)cc12 [ZIMLOVISERTIB]

Structure (SMILES): COc1cc(Nc2nc(C)cc(-c3cnn4nc(OC)ccc34)n2)cc(C(F)(F)F)c1
- % of control [4]: 65%
- % of control [5]: 100%

Structure (SMILES): O=C(NOC[C@H](O)CO)c1ccc(F)c(F)c1Nc1ccc(I)cc1F
- % of control [6]: 64%

Structure (SMILES): Cc1cc(F)c(C(=O)Nc2cccc(-c3nncn3C(C)C)n2)cc1-n1cnc(C2CC2)c1
- % of control [7]: 93%
